# Entries after “also recorded” stand apart in the source; their conditions may differ.
# Tests used:
# [1] = biological target: T1, Human recombinant GABAA receptor containing α3 subunit (Homo sapiens, UniProt P18507+P34903); assay: Electrophysiological inverse agonist efficacy on GABA-induced current; type: cell-based; details: change of GABA-induced current; negative = inhibition
# T1 construct: expressed in transfected cells; host or cells: 293 cell line
# Protocol: (§1) Different subunits of GABAA receptor were expressed in cell lines, including human kidney epithelial cell line, 293 cell line or L(tk−) cell line. The cells were cultured in medium, and such cells were used as the cellular model for screening drugs to suppress pain. a subunit, β subunit and γ subunit are indispensable for one complete functional GABAA receptor.
# (d) simultaneously expressing α3 subunit (for the protein sequence, see GenBank accession number NM_000808.3), β3 subunit and γ2 subunit in 293 cell line, forming the GABAA receptor containing α3 subunit;
# (§2) The inventors used electrophysiological methods to measure the inverse agonist efficacy of the substances to be measured, see the method described in literature (Ballard T M et al., RO4938581, a novel cognitive enhancer acting at GABAA alpha5 subunit-containing receptors. Psychopharmacology (Berl). 2009 January; 202 (1-3): 207-23). […] Many methods can be used by those skilled in the art to evaluate the binding capacity of the ligand of α5-GABAA receptor to the α5-GABAA receptor, including but not limiting to the method above.
# (§3) Inverse agonist efficacy represents the inhibition percentage of the candidate substance on the current induced by GABA through α5-GABAA receptor=(the current intensity induced by GABA through α5-GABAA receptor with the existence of candidate substance−the current intensity induced by GABA through α5-GABAA receptor without the existence of candidate substance)/the current intensity induced by GABA through α5-GABAA receptor without the existence of candidate substance.
# [2] = biological target: T2, Human recombinant GABAA receptor containing α1 subunit (Homo sapiens, UniProt P14867+P18507); assay: as above; type: cell-based; details: change of GABA-induced current; negative = inhibition
# T2 construct: expressed in transfected cells; host or cells: 293 cell line
# Protocol: as §1
# (§4) (b) simultaneously expressing α1 subunit (GenBank accession number: NM_001127648.1), β3 subunit and γ2 subunit in 293 cell line, forming the GABAA receptor containing α1 subunit; • (c) simultaneously expressing α2 subunit (for the protein sequence, see GenBank accession number NM_000813.2), β3 subunit and γ2 subunit in 293 cell line, forming the GABAA receptor containing α2 subunit;
# as §2, §3
# [3] = test system: Human recombinant GABAA receptor containing α2 subunit; assay: as above; type: cell-based; details: change of GABA-induced current; negative = inhibition
# Protocol: as §1, §4, §2, §3
# [4] = biological target: T3, Human recombinant α5-GABAA receptor (Homo sapiens, UniProt P18507+P31644); assay: as above; type: cell-based; details: change of GABA-induced current; negative = inhibition
# T3 construct: expressed in transfected cells; host or cells: 293 cell line
# Protocol: as §1
# (a) simultaneously expressing α5 subunit (for the protein sequence, see GenBank accession number NM_001165037.1), β3 subunit (for the protein sequence, see GenBank accession number NM_021912.4) and γ2 subunit (for the protein sequence, see GenBank accession number NM_198904.2) in 293 cell line, forming the GABAA receptor containing α5 subunit;
# as §2, §3
# [5] = biological target: T4, Human recombinant GABAA receptor containing α1 subunit (α1, β3, γ2) (Homo sapiens, UniProt P14867+P18507); assay: Competitive radioligand binding ([3H]Ro-0151788) on membranes of 293 cells, Ki; details: human recombinant GABAA subtype containing α1; read-out: Affinity, nM (α1)
# T4 construct: expressed in transfected cells; host or cells: 293 cell line
# Protocol: as §1
# In this example, the inventors established the following cellular models:
# as §4
# Each of the (a) to (d) above could form a GABAA receptor with complete function.
# Then, the cellular membrane was extracted and the protein concentration was measured. The competitive binding of the substances to be measured and radiolabelled compounds (e.g. 1 nM [^3H]Ro-0151788) were detected respectively to calculate the Ki value of the substances to be measured, see the method described in literature (Ballard T M et al., RO4938581, a novel cognitive enhancer acting at GABAA alpha5 subunit-containing receptors. Psychopharmacology (Berl). 2009 January; 202(1-3): 207-23). If the binding inhibition constant Ki (nM) of α5-GABAA receptor with the candidate substances in experimental group is less than the Ki of the receptor containing other a subunit (α1 subunit, α2 subunit or α3 subunit), then the candidate substance is a potential drugs for preventing, relieving or treating pain. Many methods can be used by those skilled in the art to evaluate the binding capacity of the ligand of α5-GABAA receptor to the α5-GABAA receptor, including but not limiting to the method above.
# [6] = test system: CFA induced inflammatory pain model rats (mechanical pain); assay: CFA induced inflammatory pain model, mechanical pain threshold; type: in vivo; details: rat
Structure (SMILES),"Inverse agonist efficacy, % (α3) [1] [%]","Inverse agonist efficacy, % (α1) [2] [%]","Inverse agonist efficacy, % (α2) [3] [%]","Inverse agonist efficacy, % (α5) [4] [%]",Ki [5] [nM],"Suppression of mechanical pain ([6]; oral administration, 7 days after CFA model, 1 hour after administration)","Suppression of mechanical pain ([6]; 3 mg/kg intraperitoneal, 7 days after CFA, 0.5-24 hours after administration, listed as A5I, 3 mg/kg)"
"Cn1ncnc1COc1nn2c(-c3cc(CO)on3)nncc2c1C(C)(C)C [MRK016-M3, (3-(3-tert-butyl-2-((2-methyl-2H-1,2,4-triazol-3-yl)methoxy)pyrazolo [1,5-d][1,2,4]triazin-7-yl)isoxazol-5-yl)methanol]",−15,−11,−1,−52,1.5,significantly suppress inflammatory pain; also recorded: significantly suppressed pain,
Cc1cc(-c2nnc3c4ccccc4c(OCC4=CC(C)C=N4)nn23)no1 (stereo not drawn) [α5IA],4,−4,12,−29,0.88,,efficiently treat mechanical pain; also recorded: efficiently inhibit inflammatory pain

# Reference: US20150374705A1, “Substances for treatment or relief of pain” (Shanghai Institues for Biological Sciences, priority 2012, published 2015)
